Legend:
[1] = Rancimate assay, antioxidative capacity (Example 1); details: 0.1% w/w in soya oil; 120° C.; input of air 201/h
Experimental: The antioxidative capacity of substances I-9, I-10 and I-2 is determined in the so-called Rancimate assay. The comparative substances used are 4-t-butyl-1-cyclohexanol and tocopherol. The positive standard employed is BHT. The measurement parameter is the time duration (induction time) of the increase in the conductivity of unstabilised soya oil on exposure to air at elevated temperature. The longer the induction time, the greater the stabilising or antioxidant action. The following boundary conditions were maintained: input of air 201/h; temperature 120° C. and sample concentrations of 0.1% w/w each in soya oil. For each test substance, a relative antioxidation-protection factor is determined, which corresponds to the ratio of the induction times with and without test substance: […]

[2] = tested on: S. epidermidis (ATCC 12228); experiment: Growth inhibition by optical density, Bioscreen C (Example 3); assay type: cell-based, Staphylococcus epidermidis; details: 1.0% sample in water/ethanol (12% of ethanol) diluted 1 to 2 with bacteria suspension, 37° C.
Experimental: For sample preparation, the substances being investigated are each dissolved or homogeneously dispersed in an amount of 1.0% in a water/ethanol mixture (12% of ethanol) and subsequently diluted with bacteria suspension in the ratio 1 to 2. S. epidermidis (ATCC 12228) is pre-incubated under aerobic conditions for 24 h at 35° C. on CASO agar (Merck 1.05458). A bacteria suspension having an optical density (OD) of about 1.0 is subsequently prepared in CASO broth (Merck 1.05459, double-concentrated) and diluted again 1:10 in CASO broth. 150 μl of freshly prepared sample are added to 150 μl of bacteria suspension per well. The optical density is determined over the course of time at 37° C. using a Bioscreen C™ analyser compared with the negative control (=vehicle without test substance). Compared with the negative control, reduced optical densities confirm growth-inhibiting substance actions
(§1) Result as optical density of the bacteria suspension after an exposure time of 20 hours: […]

P. acnes (ATCC 6919) = experiment: Growth inhibition by optical density, Bioscreen C (Example 4); assay type: cell-based, Propionibacterium acnes; details: 1.0% sample in water/ethanol (12% of ethanol) diluted 1 to 2 with bacteria suspension; 37° C.; negative control 1.0
Experimental: (§2) For sample preparation, the substances being investigated are each dissolved or homogeneously dispersed in an amount of 1.0% in a water/ethanol mixture (12% of ethanol) and subsequently diluted with bacteria suspension in the ratio 1 to 2. P. acnes (ATCC 6919) is pre-incubated under anaerobic conditions for 48 h at 35° C. on RMC agar (Merck 1.05410). A bacteria suspension having an optical density (OD) of about 1.5 is subsequently prepared in RMC broth (Merck 1.05411, double-concentrated). 150 μl of freshly prepared sample and 100 μl of paraffin are added to 150 μl of bacteria suspension per well. The optical density is determined over the course of time at 37° C. using a Bioscreen C™ analyser compared with the negative control (=vehicle without test substance). Compared with the negative control, reduced optical densities confirm growth-inhibiting substance actions.
as §1

[3] = tested on: S. epidermidis (ATCC 12228); experiment: Microbe count determination, bacteriostatic or bactericidal action (Example 5); assay type: cell-based, Staphylococcus epidermidis; details: 24 h at 35° C.; for Final microbe count: 1.0% sample in 12% ethanol, 500 μl + 500 μl bacteria suspension, initial count 3.8 × 10^4, negative control 5.0 × 10^7; for Note: bacteriostatic or bactericidal action: S. epidermidis
Experimental: (§3) For sample preparation, the substances being investigated are each dissolved or homogeneously dispersed in an amount of 1.0% in a water/ethanol mixture (12% of ethanol) (=sample). A bacteria suspension of S. epidermidis (ATCC 12228) having an optical density of 1.0 in CASO broth (Merck 1.05459) is diluted 1:10000 with CASO broth. 500 μl of sample are added to 500 μl of bacteria suspension, and the mixture is incubated at 35° C. for 24 h. After the incubation, the test batches are diluted to −6 in 10 unit steps, and 0.1 ml of each is plated-out on CASO agar (Merck 1.05458) and incubated at 35° C. for 24 h.
(§4) In order to determine the initial microbe count, 0.1 ml of the bacteria suspension used are plated-out on CASO agar (Merck 1.05458) and incubated at 35° C. for 24 h.
(§5) The colonies are subsequently counted, and the microbe count per ml is determined compared with the negative control (12% of ethanol in water).

Candida albicans = experiment: Antimicrobial action, microbe count (Example 6); assay type: cell-based; details: for Δlog: t24 h
Experimental: as §3, §4, §5
(§6) The procedure corresponds to that described in Examples 4 and 5 using the microorganisms shown below. The concentrations indicated are the final use concentrations. In order to prepare the stock solution, double the final concentration were prepared in the solvent indicated. This was subsequently diluted 1:2 with the corresponding microbe suspension. In the case of Aspergillus brasiliensis, the microbe count determination was exceptionally carried out after 48 h.

Aspergillus brasiliensis = experiment: Antimicrobial action, microbe count (Example 6); assay type: cell-based; details: H2O (12% of ethanol); for Δlog: count after 48 h; for Microbe count t24 h: count carried out after 48 h
Experimental: as §2, §3, §4, §5, §6

Corynebacterium xerosis = experiment: Antimicrobial action, microbe count (Example 6); assay type: cell-based; details: for Δlog: t24 h
Experimental: as §2, §3, §4, §5, §6

Echerichia coli = experiment: Antimicrobial action, microbe count (Example 6); assay type: cell-based; details: H2O (12% of ethanol); for Δlog: t24 h
Experimental: as §2, §3, §4, §5, §6

Propionibacterium acnes = experiment: Antimicrobial action, microbe count (Example 6); assay type: cell-based; details: for Δlog: t24 h
Experimental: as §2, §3, §4, §5, §6

Pseudomonas aeruginosa = experiment: Antimicrobial action, microbe count (Example 6); assay type: cell-based; details: conc. 0.5%, H2O (12% of ethanol), count t0 6.8 × 10^4
Experimental: as §2, §3, §4, §5, §6

Salmonella enterica = experiment: Antimicrobial action, microbe count (Example 6); assay type: cell-based; details: H2O (12% of ethanol); for Δlog: t24 h
Experimental: as §2, §3, §4, §5, §6

Serratia marcescens = experiment: Antimicrobial action, microbe count (Example 6); assay type: cell-based; details: conc. 0.5%, H2O (12% of ethanol), count t0 6.8 × 10^4
Experimental: as §2, §3, §4, §5, §6

Staphylococcus aureus = experiment: Antimicrobial action, microbe count (Example 6); assay type: cell-based; details: conc. 0.5%, H2O (12% of ethanol); for Δlog: t24 h
Experimental: as §2, §3, §4, §5, §6

[4] = tested on: Staphylococcus epidermidis; experiment: Antimicrobial action, microbe count (Example 6); assay type: cell-based; details: conc. 0.5%, H2O (12% of ethanol), count t0 3.4 × 10^4
Experimental: as §2, §3, §4, §5, §6

[5] = Densities and viscosities, Ubbelohde viscometer, to estimate spreadability (Example 10); assay type: physicochemical; details: 25° C.
Experimental: Measurement of the Dynamic Viscosities in Order to Estimate the Spreadability at 25° C. After measurement of the densities and kinematic viscosities using an Ubbelohde viscometer, the following dynamic viscosities arise: Since spreadabilities and viscosities of cosmetic emollients correlate well, good spreadabilities can be concluded from the viscosities determined.

Malassezia furfur = experiment: Antimicrobial action, microbe count (Example 6); assay type: cell-based; details: conc. 1.0%, H2O, count t0 4.0 × 10^2
Experimental: as §2, §3, §4, §5, §6

[6] = 2nd experiment, negative control 0.65
[7] = conc. 0.5%, H2O (12% of ethanol), count t0 3.4 × 10^4
[8] = conc. 0.5%, H2O, count t0 3.8 × 10^5
[9] = conc. 0.5%, count t0 2.0 × 10^4
[10] = conc. 0.125%, H2O, count t0 1.0 × 10^6
[11] = conc. 0.5%, H2O (12% of ethanol), count t0 3.5 × 10^4
[12] = conc. 0.5%, count t0 4.6 × 10^4
[13] = conc. 0.5%, H2O (12% of ethanol), count t0 2.0 × 10^4
[14] = conc. 0.5%, count t0 6.0 × 10^4
[15] = conc. 1.0%, H2O (12% of ethanol), count t0 6.0 × 10^3
[16] = conc. 1.0%, count t0 8.0 × 10^2
[17] = conc. 0.5%, H2O, count t0 1.0 × 10^6
[18] = conc. 0.8%, count t0 6.3 × 10^4
[19] = conc. 1.0%, H2O, count t0 7.8 × 10^5
[20] = conc. 0.8%, count t0 1.3 × 10^4
[21] = conc. 0.2%, count t0 6.3 × 10^4

CCCCC(CC)COC(=O)C1CCCCC1O (stereo not drawn) [Substance I-9, 2-hydroxycyclohexanecarboxylic acid 2-ethylhexyl ester]
Antioxidation-protection factor (ratio of the induction times with and without test substance) [1]: 1.12 | OD20h, optical density of the bacteria suspension after 20 hours [2, 6]: 0.30 | OD20h, optical density of the bacteria suspension after 20 hours (P. acnes (ATCC 6919)): 0.50 | Final microbe count [3]: 2.0 × 10^3 CFU/ml | Note: bacteriostatic or bactericidal action [3]: bacteriostatic | Microbe count t24 h (Candida albicans; [7]): 1.5 × 10^1 | Δlog (Candida albicans; [7]): −3.36 | Microbe count t24 h (Candida albicans; [8]): 8.0 × 10^6 | Δlog (Candida albicans; [8]): +1.32 | Δlog (Aspergillus brasiliensis; [9]): −1.40 | Microbe count t24 h (Aspergillus brasiliensis; [9]): 8.0 × 10^2 | Microbe count t24 h (Corynebacterium xerosis; [10]): 5.0 × 10^6 | Δlog (Corynebacterium xerosis; [10]): +0.70 | Microbe count t24 h (Corynebacterium xerosis; [11]): 0 | Δlog (Corynebacterium xerosis; [11]): −4.54 | Microbe count t24 h (Echerichia coli; [12]): 3.8 × 10^2 | Δlog (Echerichia coli; [12]): −2.08 | Microbe count t24 h (Propionibacterium acnes; [13]): 8.0 × 10^2 | Δlog (Propionibacterium acnes; [13]): −1.40 | Microbe count t24 h (Pseudomonas aeruginosa): 9.0 × 10^3 | Δlog (Pseudomonas aeruginosa; t24 h): −0.88 | Microbe count t24 h (Salmonella enterica; [14]): 1.8 × 10^4 | Δlog (Salmonella enterica; [14]): −0.52 | Microbe count t24 h (Serratia marcescens): 9.0 × 10^3 | Δlog (Serratia marcescens; t24 h): −0.88 | Microbe count t24 h (Staphylococcus aureus; count t0 4.2 × 10^4): 1.4 × 10^2 | Δlog (Staphylococcus aureus; count t0 4.2 × 10^4): −2.48 | Microbe count t24 h [4]: 6.0 × 10^3 | Δlog ([4]; t24 h): −0.75 | Density [5]: 0.9752 g/mL | Dynamic viscosity (kinematic viscosity × density) [5]: 32.2 mPas | Kinematic viscosity ([5]; Ubbelohde viscometer): 33.0 mm^2/s

CCCCOC(=O)C1CCC(O)CC1 (stereo not drawn) [Substance I-20, 4-hydroxycyclohexanecarboxylic acid butyl ester]
OD20h, optical density of the bacteria suspension after 20 hours [2, 6]: 0.20 | OD20h, optical density of the bacteria suspension after 20 hours (P. acnes (ATCC 6919)): 0.70 | Final microbe count [3]: 0 CFU/ml | Note: bacteriostatic or bactericidal action [3]: bactericidal | Microbe count t24 h (Candida albicans; [8]): 0 | Δlog (Candida albicans; [8]): −5.58 | Microbe count t24 h (Candida albicans; [15]): 0 | Δlog (Candida albicans; [15]): −3.78 | Δlog (Aspergillus brasiliensis; [16]): −0.60 | Microbe count t24 h (Aspergillus brasiliensis; [16]): 2.0 × 10^2 | Microbe count t24 h (Corynebacterium xerosis; [17]): 0 | Δlog (Corynebacterium xerosis; [17]): −6.00 | Microbe count t24 h (Echerichia coli; [18]): 0 | Δlog (Echerichia coli; [18]): −4.80 | Microbe count t24 h (Malassezia furfur): 0 | Δlog (Malassezia furfur; t24 h): −2.60 | Microbe count t24 h (Propionibacterium acnes; [19]): 1.3 × 10^4 | Δlog (Propionibacterium acnes; [19]): −1.78 | Microbe count t24 h (Salmonella enterica; [20]): 0 | Δlog (Salmonella enterica; [20]): −4.11 | Microbe count t24 h (Staphylococcus aureus; count t0 1.1 × 10^4): 0 | Δlog (Staphylococcus aureus; count t0 1.1 × 10^4): −4.04

tocopherol [reference compound]
Antioxidation-protection factor (ratio of the induction times with and without test substance) [1]: 1.00

CC(C)(C)C1CCC(O)CC1 (stereo not drawn) [4-t-butyl-1-cyclohexanol, reference compound]
Antioxidation-protection factor (ratio of the induction times with and without test substance) [1]: 1.05

CC1CC(OC(=O)C2CCCCC2O)CC(C)(C)C1 (stereo not drawn) [Substance I-10, 2-hydroxycyclohexanecarboxylic acid 3,3,5-trimethylcyclohexyl ester]
Antioxidation-protection factor (ratio of the induction times with and without test substance) [1]: 1.14 | OD20h, optical density of the bacteria suspension after 20 hours ([2]; 1st experiment, negative control 0.80): 0.30 | OD20h, optical density of the bacteria suspension after 20 hours (P. acnes (ATCC 6919)): 0.45 | Final microbe count [3]: 2.0 × 10^3 CFU/ml | Note: bacteriostatic or bactericidal action [3]: bacteriostatic

COC(=O)c1ccc(O)cc1 [Methylparaben, methylparaben, reference compound]
Microbe count t24 h (Echerichia coli; [21]): 4.8 × 10^3 | Δlog (Echerichia coli; [21]): −1.12

— patent USRE46698E1, “Use of cyclohexanol derivatives as antimicrobial active compounds” (MERCK PATENT GMBH, priority 2011, dated 2018)
